Laboratory results as given in patent US20050032888A1 (priority 2001, published 2005).

Columns and labels:
skin of older probands = test: Regular topical application of ascorbic acid to the skin of older probands (confocal microscopy in vivo)
Excerpt: Status and changes of the microcapillary system and the rete peg pattern can be shown, followed, and quantified on probands quickly (in minutes) by means of modern techniques, such as confocal microscopy in vivo—i.e., free of injury, repeatedly as often as desired, and with dynamic responses to actual influences—both with respect to the density of the rete pegs or microcapillaries (number per surface unit) and with respect to their height, which makes it possible to estimate the size of the exchange surface.

[1] = cited from earlier work

## O=C1O[C@H]([C@@H](O)CO)C(O)=C1O [ascorbic acid]
Skin of older probands
  density of rete pegs and microcapillaries: reversibly increased to the extent of youthful skin
  elasticity parameters of the skin (formation of suction blisters): improvement
  moisture content and roughness of the horny layer: improvement
[1]; heat
  stability to heat: sensitive to heat
[1]; pure, dry state, light, air, heat
  stability in a pure, dry state: relatively resistant to light, air, and heat
[1]; traces of heavy metal, alkaline environment, air and atmospheric oxygen
  stability in the presence of traces of heavy metal and in an alkaline environment: decomposes
